According to the NIST ThermoML archive (doi:10.1021/je700370z):
Values joined by “and” are separate entries in the source; they are usually repeats but may differ in a detail not shown here. Identical values can stand only once.

Details: Liquid; for viscosity: Falling or rolling sphere viscometry; for mass density: Vibrating tube method

CCCCn1cc[n+](C)c1.F[B-](F)(F)F [1-butyl-3-methylimidazolium tetrafluoroborate]
Details	mass density	viscosity
273.15 K, 100 kPa	1219.64 kg/m3	543 mPa·s and 542.8 mPa·s
273.15 K, 101.33 kPa	1219.5 kg/m3 and 1219.64 kg/m3	510.8 mPa·s and 511 mPa·s
278.15 K, 101.33 kPa	1215.79 kg/m3	353 mPa·s and 352.9 mPa·s
283.15 K, 100 kPa	1212.22 kg/m3	263.7 mPa·s and 263.8 mPa·s
283.15 K, 101.33 kPa	1212.07 kg/m3 and 1212.22 kg/m3	250.7 mPa·s and 250.6 mPa·s
283.15 K, 800 kPa	1212.53 kg/m3	266.3 mPa·s
283.15 K, 11000 kPa	1217.32 kg/m3	302.2 mPa·s
283.15 K, 24900 kPa	1223.58 kg/m3	359.1 mPa·s
283.15 K, 49600 kPa	1234.03 kg/m3	484.8 mPa·s
283.15 K, 75300 kPa	1244.07 kg/m3	655.9 mPa·s
283.15 K, 100600 kPa	1253.28 kg/m3	875 mPa·s
288.15 K, 101.33 kPa	1208.38 kg/m3	182.4 mPa·s
293.15 K, 100 kPa	1204.98 kg/m3	142.1 mPa·s and 142 mPa·s
293.15 K, 101.33 kPa	1204.83 kg/m3 and 1204.98 kg/m3	135.6 mPa·s and 135.7 mPa·s
298.15 K, 100 kPa	1201.43 kg/m3	108 mPa·s and 108.5 mPa·s and 108.7 mPa·s
298.15 K, 101.33 kPa	1201.29 kg/m3 and 1201.43 kg/m3	103.7 mPa·s [middle of 4 runs]
298.15 K, 500 kPa	1201.61 kg/m3	108.6 mPa·s
298.15 K, 25900 kPa	1213.76 kg/m3	142.6 mPa·s
298.15 K, 50800 kPa	1224.72 kg/m3	185 mPa·s
298.15 K, 75900 kPa	1234.94 kg/m3	239.8 mPa·s
298.15 K, 101100 kPa	1244.42 kg/m3	308.3 mPa·s
298.15 K, 126200 kPa	1253.22 kg/m3	393.9 mPa·s
298.15 K, 150600 kPa	1261.21 kg/m3	499.9 mPa·s
298.15 K, 150700 kPa	1261.23 kg/m3	500.6 mPa·s
298.15 K, 175400 kPa	1268.78 kg/m3	634.7 mPa·s
298.15 K, 200900 kPa	1276.07 kg/m3	808.3 mPa·s
303.15 K, 100 kPa	1197.88 kg/m3	84.6 mPa·s
303.15 K, 101.33 kPa	1197.75 kg/m3 and 1197.88 kg/m3	80.6 mPa·s and 80.7 mPa·s
313.15 K, 100 kPa	1190.78 kg/m3	53.5 mPa·s and 53.6 mPa·s
313.15 K, 101.33 kPa	1190.68 kg/m3	51.3 mPa·s
323.15 K, 100 kPa	1183.79 kg/m3	35.6 mPa·s
323.15 K, 101.33 kPa	1183.67 kg/m3 and 1183.79 kg/m3	34.6 mPa·s
323.15 K, 140 kPa	1183.79 kg/m3	36 mPa·s
323.15 K, 10495 kPa	1189.26 kg/m3	39.3 mPa·s
323.15 K, 25446 kPa	1196.8 kg/m3	44.5 mPa·s
323.15 K, 50493 kPa	1208.59 kg/m3	55.5 mPa·s
323.15 K, 75560 kPa	1219.46 kg/m3	68.1 mPa·s
323.15 K, 100566 kPa	1229.48 kg/m3	83.3 mPa·s
323.15 K, 125543 kPa	1238.76 kg/m3	101.5 mPa·s
323.15 K, 150422 kPa	1247.36 kg/m3	123.2 mPa·s
323.15 K, 175463 kPa	1255.42 kg/m3	149.2 mPa·s
323.15 K, 200347 kPa	1262.9 kg/m3	180.1 mPa·s
323.15 K, 225321 kPa	1269.94 kg/m3	216.9 mPa·s
323.15 K, 250139 kPa	1276.5 kg/m3	260.9 mPa·s
333.15 K, 100 kPa	1176.81 kg/m3	25.2 mPa·s and 25.5 mPa·s
333.15 K, 101.33 kPa	1176.7 kg/m3 and 1176.81 kg/m3	24.5 mPa·s
343.15 K, 100 kPa	1169.87 kg/m3	18.4 mPa·s and 18 mPa·s
343.15 K, 101.33 kPa	1169.79 kg/m3	18.1 mPa·s
348.15 K, 100 kPa	1166.45 kg/m3	16.2 mPa·s and 15.9 mPa·s
348.15 K, 101.33 kPa	1166.45 kg/m3	–
348.15 K, 11700 kPa	1172.95 kg/m3	17.4 mPa·s
348.15 K, 25200 kPa	1180.23 kg/m3	19.4 mPa·s
348.15 K, 50700 kPa	1192.94 kg/m3	23.3 mPa·s
348.15 K, 75600 kPa	1204.4 kg/m3	27.8 mPa·s
348.15 K, 100600 kPa	1214.97 kg/m3	33 mPa·s
348.15 K, 125600 kPa	1224.72 kg/m3	38.8 mPa·s
348.15 K, 150600 kPa	1233.78 kg/m3	45.6 mPa·s
348.15 K, 175600 kPa	1242.2 kg/m3	53.4 mPa·s
348.15 K, 200600 kPa	1250.04 kg/m3	62.3 mPa·s
348.15 K, 225500 kPa	1257.34 kg/m3	72.6 mPa·s
348.15 K, 250400 kPa	1264.17 kg/m3	84.6 mPa·s
348.15 K, 275300 kPa	1270.59 kg/m3	98.4 mPa·s
348.15 K, 300000 kPa	1276.57 kg/m3	114 mPa·s
353.15 K, 101.33 kPa	1162.92 kg/m3	13.9 mPa·s and 13.8 mPa·s
360.15 K, 101.33 kPa	1158.27 kg/m3	–
362.76 K, 101.33 kPa	1156.51 kg/m3	–
363.15 K, 101.33 kPa	1156.11 kg/m3	–
363.16 K, 101.33 kPa	1156.22 kg/m3	–
